# Patent publication US9913870B2, “Method for stimulating AMP-activated protein kinase” (DHARMA BIOMEDICAL, LLC, priority 2012, dated 2018)
# “Also recorded” adds a separate entry of the source.
# Tests used:
# CCL-110 skin fibroblasts = experiment: Cytotoxicity assay (MTT, Cell Proliferation I kit); assay type: cell-based, human; conditions: up to 100 μg mL−1, 24 hours
# Protocol: CCL-110 skin fibroblasts were cultured and plated at a density of 0.5×10^4 cells per well in 96-well tissue culture multiwell plates in EMEM medium. On the next day when cells were attached, they were treated with increasing concentrations (0-100 μg mL^−1) of GU-TC7 and CoQ10 (CoQ10 purchased from Sigma Chemical Co., St. Louis, Mo., U.S.A.) at 37° C. for 24 hours in a CO2 incubator maintained at 5% CO2 and 95% air. Cell proliferation assay was performed using the Cell Proliferation I kit (Roche Biochemicals, Indianapolis, Ind., U.S.A.) according to the manufacturer's protocol. The percentage survival of cells at each concentration was calculated based on the untreated control and plotted against drug concentrations (Cochrane, C. B. et al. “Anticancer effects of Annona glabra plant extracts in human leukemic cell lines” Anticancer Res., 2008, 28:965-971). Cytotoxicity assay was repeated three times with triplicate samples in each and mean values calculated.
# MMP-1 = MMP-1 expression ELISA in CCL-110 fibroblasts, with and without TNF-α; assay type: cell-based, human; design: MMP-1 expression compared to untreated CCL-110 cells: dose or concentration left out as unconfirmed; conditions: for MMP-1 protein expression: CCL-110 fibroblasts, 24 hours, 0-100 μg mL−1, without TNF-α
# Protocol: CCL-110 skin fibroblast cells (10^5 mL^−1) were plated in 0.5% FBS containing EMEM for 24 hours for starvation and then treated with increasing concentrations of GU-TC7 and CoQ10 (0-100 μg mL^−1) for another 24 hours with and without the positive control ([…]). The medium was harvested and analyzed for MMP-1 (ng mL^−1) using the human MMP-1 ELISA kit from R&D Systems (Minneapolis, Minn., U.S.A.) according to the manufacturer's instructions. MMP-1 ELISA studies were repeated three times, with duplicate samples in each assay.
# human elastase = experiment: PMN-elastase expression ELISA in CCL-110 fibroblasts; assay type: cell-based; conditions: 24 hours
# Protocol: CCL-110 skin fibroblast cells (10^6) were plated in EMEM containing 0.5% FBS and treated with increasing concentrations of GU-TC7 and CoQ10 for 24 hours in a CO2 incubator. The monolayer was lysed with 500 μL of RIPA buffer (50 mM Tris PH 7.4, 150 mM NaCl, 0.1% SDS, 0.5% Sodium deoxycholate, 1% Triton X-100 with one tablet for 25 mL of buffer) and protein concentration of the cellular extract was determined. Cellular extract (100 μg protein) was analyzed for the expression of human elastase using the PMN-Elastase ELISA kit form Alpco Immunoassays (Salem, N.H., U.S.A.).
# type I collagen = experiment: Collagen type I expression ELISA in CCL-110 fibroblasts; assay type: cell-based, human; conditions: 24 hours, increasing concentrations
# Protocol: CCL-110 human fibroblast cells (0.5×10^6) were treated with increasing concentrations of GU-TC7 and CoQ10 for 24 hours in 0.5% starving medium. On the next day, the medium was completely removed, washed with phosphate buffered saline once and lysed with 500 μL of 0.05 M acetic acid (pH 2.8-3.0) and 50 μL of pepsin solution by incubating at 4° C. for 48 hours. Later, […] of 10×TBS (1 M Tris, 2 M NaCl, 50 mM CaCl2) was added, and pH was adjusted to 8.0 with 1 N NaOH, and 50 μL of human pancreatic elastase was added followed by the incubation for another 48 hours at 4° C. The cells were scraped and transferred to eppendorf tubes and centrifuged for 10 min at 10 000 rpm. The supernatant was transferred to a new eppendorf tube, and protein concentration of the extract was determined. The type I collagen in the extract was analyzed using the human type 1 collagen ELISA kit from MD Bio-products (St. Paul, […]., U.S.A.).
# HSP70 = HSP70 expression ELISA in Menadione-stressed HepG2 cells; assay type: cell-based, human; conditions: 50 μM, 3 hours
# Protocol: A human liver cell line (HepG2) was used to study the expression of HSP70 in GU-MCT treated cells. The cells (2×10^6/4 ml) were grown in Eagles minimal essential medium and treated with 50 μM Menadione (Vitamin K analogue) for 3 hours in order to induce stress in the presence or absence of increasing concentrations of GU-MCT (0-100 μg/ml). The cells were harvested by scraping and cell lysate prepared by homogenizing cells in 0.5 ml of lysis buffer (R&D systems, Minneapolis, Minn.). Protein concentration of cell lysate was estimated and 10 μg protein was used for ELISA. The ELISA kit from R&D systems, MN was used to analyze the HSP70 protein expression (pg/ml) in the cell extract. The percentage of change in HSP70 expression was calculated based on the expression in untreated sample (100%).
# HepG2 cells = experiment: HDL and LDL/VLDL cholesterol quantification in HepG2 cells; assay type: cell-based, human
# Protocol: HepG2 cells (2×106) were incubated with increasing concentrations of Glucodox (0-100 ug/ml) for 72 hours at 37° C. The cells, after washing with PBS, were lysed with methanol:choloroform […] solution. Both HDL an LDL fractions were separated and estimated using the HDL and LDL/VLDL quantification kit (MBL International Corporation, MA).
# 3T3-L1 adipocytes = experiment: Glucose uptake in differentiated adipocytes; assay type: cell-based; conditions: 72 hours
# Protocol: 3T3-LI preadipocytes were used for glucose uptake and they were differentiated in the same manner as for adipocyte staining. The differentiated adipocytes (0.5×10^6) were treated with increasing concentrations (2-100 μg/ml) of guggul extracts for 72 hours in DMEM medium containing 1 μM insulin. 2,4-Thiazolidinedione (0.005 μM-0.1 μM) was used as a positive control for comparison. After 72 hours, the medium was replaced with starving medium (DMEM without FBS) for 2 hours at 37° C. and then with 3 ml KRH buffer (136 mM NaCl, 4.7 mM KCl, 1.25 mM CaCl2, 1.25 mM Mg SO4, 10 mM Hepes, pH 7.4) with 1 uM insulin at 37° C. for 30 min. For glucose uptake, 4.5 mg/ml glucose was added into the KRH buffer and plates were incubated for another 15 min. The plates were washed 4 times with KRH buffer, cells were lysed with RIPA buffer (0.5 ml/plate). The protein concentration of the extract was estimated and 500 ug extract was used for glucose estimation using the assay kit from Sigma Chemical Co., MO. The absorbance of the reaction mixture was measured at 340 nm and glucose concentration calculated.
compound,measurement,setting,value
"COC1=C(OC)C(=O)C(C/C=C(\C)CC/C=C(\C)CC/C=C(\C)CC/C=C(\C)CC/C=C(\C)CC/C=C(\C)CC/C=C(\C)CC/C=C(\C)CC/C=C(\C)CCC=C(C)C)=C(C)C1=O [CoQ10, coenzyme Q10]",cytotoxic effects on CCL-110 skin fibroblasts,CCL-110 skin fibroblasts,no cytotoxic effects
same,cytotoxic effects on CCL-110 skin fibroblasts,CCL-110 skin fibroblasts; listed as Coenzyme Q10,little cytotoxicity
same,MMP-1 protein expression,MMP-1,"inhibits MMP-1 at 5 μg mL^−1, the inhibition rate remained almost constant with increasing concentrations"
same,MMP-1 protein expression,MMP-1; listed as Coenzyme Q10,inhibition of MMP-1 expression
same,human elastase expression,human elastase,no such inhibition was evident; also recorded: no inhibition of elastase at any evaluated concentration
same,type I collagen synthesis,type I collagen,inhibitory trend was noticed with increasing doses
same,type I collagen synthesis,type I collagen; listed as Coenzyme Q10,enhanced synthesis of type I collagen
CC1=CC(=O)c2ccccc2C1=O [Menadione],down regulation of HSP70 expression,HSP70,40%
CC[C@H](C)C(=O)O[C@H]1CCC=C2C=C[C@H](C)[C@H](CC[C@@H]3C[C@@H](O)CC(=O)O3)[C@H]21 [Mevastatin],HDL in cellular extracts and cell culture medium,HepG2 cells,not induced
"O=C1CSC(=O)N1 [2,4 Thiazolidinedione, 2,4-Thiazolidinedione]",glucose uptake (insulin sensitivity),3T3-L1 adipocytes,more potent than the guggul extracts
TNF-α,MMP-1 expression compared to untreated CCL-110 cells,MMP-1; TNF-α treatment,three times
